From paper PMC9240354, “Pharmacokinetics, Pharmacodynamics and Antiviral Efficacy of the MEK Inhibitor Zapnometinib in Animal Models and in Humans” (Frontiers in Pharmacology, 2022)
Like-named read-outs stand apart in the source and are kept apart here.

What was measured:
[1] = in vivo; conditions: beagle, dog, po, 30 mg/kg
[2] = system: influenza A and B viruses; design: method as in Laure et al., 2020; conditions: in vitro, ref Laure et al., 2020, read-out: EC50 antiviral efficacy; cited from earlier work
[3] = healthy volunteers, n = 8
[4] = mice
[5] = clinical; conditions: both, human, in vivo; for AUC(0-t): healthy volunteers, n = 8
[6] = tolerability in mice; type: in vivo; conditions: influenza virus infected mice, 25 mg/kg BID p.o.
Protocol: Zapnometinib [2-(2-Chloro-4-Iodophenylamino)-N-3,4-Difluoro benzoic acid] (M = 409.56 g/mol) was synthesized at ChemCon GmbH (Freiburg, Germany). The doses used in this study were chosen based on previously unpublished preclinical data. […] The toxicity of zapnometinib was evaluated in single- and repeat-dose p. o. studies of up to 1-month duration in rats and dogs. The genetic toxicity of zapnometinib was investigated in compliance with ICH S2; a standard battery of genotoxicity studies was performed, comprising an Ames test, an in vitro chromosome aberration test in human lymphocytes and an in vivo micronucleus assay in rats. Thus, the doses used in this manuscript were safe (Koch-Heier et al., manuscript in preparation). For treatment of mice, 10.5 mg zapnometinib were dissolved in 5% (v/v) dimethyl sulfoxide (DMSO) (Carl Roth GmbH, Karlsruhe, Germany) and further diluted with 15% (v/v) Cremophor EL (Merck KGaA, Darmstadt, Germany), and 80% (v/v) phosphate-buffered saline (PBS) (Gibco, Carlsbad, CA, California, United States). Each mouse received a dose of 25 mg/kg zapnometinib in an application volume of 200 µL of the formulation by oral gavage. The first treatment was given on day 0 (1 h prior to influenza virus infection) and the second treatment 7 h post infection. […]

## O=C(O)c1ccc(F)c(F)c1Nc1ccc(I)cc1Cl [zapnometinib, 2-(2-Chloro-4-Iodophenylamino)-N-3,4-Difluoro benzoic acid]
[1]
  half-life: 4 to 5 h
[2]
  EC50: 4.2 to 6.4 µM
[3]; single oral dose 100 mg
  C24 h: 1000 ± 400 ng/mL
[3]; single oral dose 300 mg
  C24 h: 4000 ± 800 ng/mL
[3]; single oral dose 600 mg
  C24 h: 8000 ± 2000 ng/mL
[3]; single oral dose 900 mg
  C24 h: 16000 ± 6000 ng/mL
[4]; 25 mg/kg p.o. twice, t = 10 h
  plasma concentration two hours after the second administration: 101000 ± 16000 ng/mL
[4]; 25 mg/kg p.o., t = 8 h
  plasma concentration prior to the second treatment: 36000 ± 8000 ng/mL
[5]
  half-life: 19 h
[5]; po, 100 mg
  Cmax: 9000 ± 2000 ng/mL
  Tmax: 2 h
  half-life: 19.6 ± 5.3 h
[5]; po, 100 mg, AUC0-t, single oral dose 100 mg
  AUC(0-t): 115 ± 10 µg·h/mL
[5]; po, 100 mg, AUC0–24 h, single oral dose 100 mg
  AUC(0-t): 84 ± 9 µg·h/mL
[5]; po, 300 mg
  Cmax: 13000 ± 4000 ng/mL
  Tmax: 4 h
  half-life: 19.8 ± 5.8 h
[5]; po, 300 mg, AUC0-t, single oral dose 300 mg
  AUC(0-t): 241 ± 18 µg·h/mL
[5]; po, 300 mg, AUC0–24 h, single oral dose 300 mg
  AUC(0-t): 157 ± 16 µg·h/mL
[5]; po, 600 mg
  Cmax: 35000 ± 7000 ng/mL
  Tmax: 4 h
  half-life: 21.9 ± 6.8 h
[5]; po, 600 mg, AUC0-t, single oral dose 600 mg
  AUC(0-t): 617 ± 51 µg·h/mL
[5]; po, 600 mg, AUC0–24 h, single oral dose 600 mg
  AUC(0-t): 411 ± 44 µg·h/mL
[5]; po, 900 mg
  Cmax: 46000 ± 16000 ng/mL
  Tmax: 4 h
  half-life: 23.7 ± 8.2 h
[5]; po, 900 mg, AUC0-t, single oral dose 900 mg
  AUC(0-t): 1000 µg·h/mL
[5]; po, 900 mg, AUC0–24 h, single oral dose 900 mg
  AUC(0-t): 629 ± 83 µg·h/mL
[6]
  tolerability: well tolerated and not toxic
